# Species: Rattus norvegicus
# Experiment: Open TG-GATES - Regimen: Single
# Format: toxicity, organism-based, Sprague-Dawley
# Parameters: regimen Single, gender Male, age 6 weeks
# Conditions: in vivo, po, 100 mg/kg, route gavage, dose level Low; for APTT / Bas / Eos / Fbg / Hb / Ht / Lym / MCH / MCHC / MCV / Mono / Neu / PT / Plat / RBC / Ret / WBC: tissue Blood; for KIDNEY_L / KIDNEY_R / KIDNEY_TOTAL: tissue Kidney; for LIVER: tissue Liver; for A/G / ALP / ALT / AST / BUN / CRE / Ca / Cl / DBIL / GLC / IP / K / LDH / Na / PL / RALB / TBIL / TC / TG / TP / gamma-GTP: tissue Plasma
structure (smiles),measurement,setting,value
CC(=O)Nc1ccc2c(c1)Cc1ccccc1-2 [2-ACETYLAMINOFLUORENE],TERMINAL_BW,3 h,222.2 g
same,APTT,3 h,19.4 s
same,Bas,3 h,0.8%
same,Eos,3 h,1%
same,Fbg,3 h,228.6 mg/dL
same,Hb,3 h,14.1 g/dL
same,Ht,3 h,40.7%
same,Lym,3 h,76.4%
same,MCH,3 h,21.6 pg
same,MCHC,3 h,34.7%
same,MCV,3 h,62.3 fL
same,Mono,3 h,2%
same,Neu,3 h,19.2%
same,PT,3 h,11.6 s
same,Plat,3 h,114.3 x10_4/uL
same,RBC,3 h,653.2 x10_4/ul
same,Ret,3 h,7%
same,WBC,3 h,73.8 x10_2/uL
same,KIDNEY_L,3 h,1 g
same,KIDNEY_R,3 h,1 g
same,KIDNEY_TOTAL,3 h,2 g
same,LIVER,3 h,10.4 g
same,A/G,3 h,1.8
same,ALP,3 h,1019.4 IU/L
same,ALT,3 h,37.6 IU/L
same,AST,3 h,77 IU/L
same,BUN,3 h,13.2 mg/dL
same,CRE,3 h,0.4 mg/dL
same,Ca,3 h,10.7 mg/dL
same,Cl,3 h,103.4 meq/L
same,DBIL,3 h,0.07 mg/dL
same,GLC,3 h,212.8 mg/dL
same,IP,3 h,10.8 mg/dL
same,K,3 h,4 meq/L
same,LDH,3 h,203.8 IU/L
same,Na,3 h,141.4 meq/L
same,PL,3 h,151 mg/dL
same,RALB,3 h,3.6 g/dL
same,TBIL,3 h,0.1 mg/dL
same,TC,3 h,92.6 mg/dL
same,TG,3 h,45.8 mg/dL
same,TP,3 h,5.6 g/dL
same,gamma-GTP,3 h,1 IU/L
same,TERMINAL_BW,6 h,219.9 g
same,APTT,6 h,20.9 s
same,Bas,6 h,0.4%
same,Eos,6 h,1%
same,Fbg,6 h,221.6 mg/dL
same,Hb,6 h,13.9 g/dL
same,Ht,6 h,40.1%
same,Lym,6 h,81.6%
same,MCH,6 h,21.3 pg
same,MCHC,6 h,34.6%
same,MCV,6 h,61.5 fL
same,Mono,6 h,2.4%
same,Neu,6 h,14.2%
same,PT,6 h,12.2 s
same,Plat,6 h,132.9 x10_4/uL
same,RBC,6 h,652 x10_4/ul
same,Ret,6 h,7%
same,WBC,6 h,82.3 x10_2/uL
same,KIDNEY_L,6 h,1 g
same,KIDNEY_R,6 h,1 g
same,KIDNEY_TOTAL,6 h,2 g
same,LIVER,6 h,9.9 g
same,A/G,6 h,1.6
same,ALP,6 h,792.8 IU/L
same,ALT,6 h,31.6 IU/L
same,AST,6 h,70.6 IU/L
same,BUN,6 h,10 mg/dL
same,CRE,6 h,0.4 mg/dL
same,Ca,6 h,10.5 mg/dL
same,Cl,6 h,101.8 meq/L
same,DBIL,6 h,0.064 mg/dL
same,GLC,6 h,195.6 mg/dL
same,IP,6 h,9.4 mg/dL
same,K,6 h,4.1 meq/L
same,LDH,6 h,169 IU/L
same,Na,6 h,140.4 meq/L
same,PL,6 h,135.6 mg/dL
same,RALB,6 h,3.4 g/dL
same,TBIL,6 h,0.1 mg/dL
same,TC,6 h,79.2 mg/dL
same,TG,6 h,45.2 mg/dL
same,TP,6 h,5.6 g/dL
same,gamma-GTP,6 h,1 IU/L
same,TERMINAL_BW,9 h,218.6 g
same,APTT,9 h,19 s
same,Bas,9 h,0.6%
same,Eos,9 h,0.8%
same,Fbg,9 h,227.6 mg/dL
same,Hb,9 h,14.1 g/dL
same,Ht,9 h,40.8%
same,Lym,9 h,72.8%
same,MCH,9 h,21.4 pg
same,MCHC,9 h,34.5%
same,MCV,9 h,62.2 fL
same,Mono,9 h,3%
same,Neu,9 h,22%
same,PT,9 h,12.9 s
same,Plat,9 h,124.3 x10_4/uL
same,RBC,9 h,655 x10_4/ul
same,Ret,9 h,6.7%
same,WBC,9 h,79.5 x10_2/uL
same,KIDNEY_L,9 h,0.9 g
same,KIDNEY_R,9 h,0.9 g
same,KIDNEY_TOTAL,9 h,1.9 g
same,LIVER,9 h,9.5 g
same,A/G,9 h,1.5
same,ALP,9 h,754.8 IU/L
same,ALT,9 h,31 IU/L
same,AST,9 h,67.2 IU/L
same,BUN,9 h,10.8 mg/dL
same,CRE,9 h,0.4 mg/dL
same,Ca,9 h,10.5 mg/dL
same,Cl,9 h,104.2 meq/L
same,DBIL,9 h,0.064 mg/dL
same,GLC,9 h,211.2 mg/dL
same,IP,9 h,9.1 mg/dL
same,K,9 h,3.8 meq/L
same,LDH,9 h,230 IU/L
same,Na,9 h,141.2 meq/L
same,PL,9 h,124.8 mg/dL
same,RALB,9 h,3.4 g/dL
same,TBIL,9 h,0.1 mg/dL
same,TC,9 h,65 mg/dL
same,TG,9 h,56.8 mg/dL
same,TP,9 h,5.7 g/dL
same,gamma-GTP,9 h,1 IU/L
same,TERMINAL_BW,24 h,221.4 g
same,APTT,24 h,21.7 s
same,Bas,24 h,0.2%
same,Eos,24 h,1%
same,Fbg,24 h,215.6 mg/dL
same,Hb,24 h,14.6 g/dL
same,Ht,24 h,42%
same,Lym,24 h,76.8%
same,MCH,24 h,22.2 pg
same,MCHC,24 h,34.7%
same,MCV,24 h,63.8 fL
same,Mono,24 h,5%
same,Neu,24 h,16.6%
same,PT,24 h,14.5 s
same,Plat,24 h,140.8 x10_4/uL
same,RBC,24 h,658.2 x10_4/ul
same,Ret,24 h,6.5%
same,WBC,24 h,91.5 x10_2/uL
same,KIDNEY_L,24 h,1 g
same,KIDNEY_R,24 h,1 g
same,KIDNEY_TOTAL,24 h,2.1 g
same,LIVER,24 h,11.2 g
same,A/G,24 h,1.8
same,ALP,24 h,1020 IU/L
same,ALT,24 h,37.8 IU/L
same,AST,24 h,74 IU/L
same,BUN,24 h,17.2 mg/dL
same,CRE,24 h,0.4 mg/dL
same,Ca,24 h,10.4 mg/dL
same,Cl,24 h,105.4 meq/L
same,DBIL,24 h,0.1 mg/dL
same,GLC,24 h,187.8 mg/dL
same,IP,24 h,8.4 mg/dL
same,K,24 h,4.6 meq/L
same,LDH,24 h,207.4 IU/L
same,Na,24 h,140.6 meq/L
same,PL,24 h,120.8 mg/dL
same,RALB,24 h,3.3 g/dL
same,TBIL,24 h,0.2 mg/dL
same,TC,24 h,52 mg/dL
same,TG,24 h,120.6 mg/dL
same,TP,24 h,5.1 g/dL
same,gamma-GTP,24 h,1.4 IU/L

# From ChEMBL document CHEMBL3885861, “Open TG-GATES”
